Experimental data from patent US12509460B2 (Skyhawk Therapeutics, Inc., priority 2019, dated 2025).

Experiments:
[1] = Quantitative splicing assay (HTT), qPCR; type: cell-based, human; conditions: Homo sapiens, GM04724, 24 h, GM04724 lymphoblasts, qPCR, read-out: HTT Splicing: E49-50 EC50
Method in brief: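 Patient lymphoblasts (50,000 cells/well) dosed immediately after plating for 24 h at 2.5 uM to 0.15 nM in 0.1% DMSO. Lysed, cDNA made directly from cells, and inclusion of the intron 49 cryptic exon quantified by TaqMan qPCR.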

[2] = tested on: mHTT protein in GM04724 (CAG 70/20) Huntington's disease patient lymphoblast cells; experiment: mHTT protein assay, 2B7-MW1 assay via Mesoscale Discovery (MSD); type: cell-based, human; conditions: GM04724 Huntington's disease patient lymphoblasts
Method in brief: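 Patient lymphoblasts treated 48 h with compound from 10 μM to 0.6 nM. mHTT quantified by MSD 2B7-MW1 immunoassay, whose signal depends on polyQ expansion and HTT size. Viability measured on a replicate plate by CellTiter Glo.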

[3] = tested on: SMN FL and SMN Δ7 in spinal muscular atrophy (SMA) patient fibroblasts (GM03813, Coriell); experiment: Quantitative splicing assay (SMN), qPCR; type: cell-based, human; conditions: Homo sapiens, Fibroblast, 24 h, SMA patient fibroblasts GM03813, 24 h, qPCR; read-out: SMN2 Splicing FL EC50
Protocol: Spinal muscular atrophy (SMA) patient fibroblasts (GM03813, Coriell) are plated in 96-well plates at 50,000 cells/well. […] Treated cells are lysed and cDNA synthesized using the Fast Advanced Cells-to-Ct kit (Thermofisher A35378) according to the manufacturer's instructions. 2 μL of each cDNA are used in qPCR reactions. […] Reactions are run in a Quant Studio 6 qPCR instrument with default settings.

[4] = tested on: SMN protein in spinal muscular atrophy (SMA) patient fibroblasts (GM03813, Coriell); experiment: SMN protein assay, Mesoscale Discovery (MSD); type: cell-based, human; conditions: SMA patient fibroblasts GM03813, 48 hours, MSD; read-out: SMN2 protein EC50
Method in brief: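 SMA patient fibroblasts (GM03813) seeded at 7000 cells/well and exposed to compound at 2.5 μM to 0.6 nM for 48 hours. Lysates assayed for SMN by MSD immunoassay, with absolute SMN amount calculated from a per-plate SMN standard curve (1 μg/ml to 19.5 pg/ml).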

[5] = tested on: MDR1 (P-gp); experiment: Blood-brain-barrier (BBB) penetration potential via MDCK-MDR1 permeability assay; conditions: dog; for Papp A→B at 120 min, 5 μM: MDCK-MDR1, pH 7.4, MDCK-MDR1: Papp A-B, A-B direction; for Papp B→A at 120 min, 5 μM: MDCK-MDR1, pH 7.4, MDCK-MDR1: Papp B-A, B-A direction
[6] = tested on: MDR1-MDCK cell monolayers; experiment: as above; conditions: for MDCK-MDR1: % Recov A-B: A-B direction; for MDCK-MDR1: % Recov B-A: B-A direction
[7] = tested on: MDR1; experiment: as above; conditions: dog, MDCK-MDR1, pH 7.4, MDCK-MDR1: Efflux, efflux ratio

| Compound | EC50 [1] [nM] | EC50 [2] [nM] | EC50 [3] [nM] | EC50 [4] [nM] | Papp A→B at 120 min, 5 μM [5] [×10⁻⁶ cm/s] | Papp B→A at 120 min, 5 μM [5] [×10⁻⁶ cm/s] | MDCK-MDR1: % Recov A-B [6] [%] | MDCK-MDR1: % Recov B-A [6] [%] | efflux ratio at 120 min, 5 μM [7] |
| --- | --- | --- | --- | --- | --- | --- | --- | --- | --- |
| CN(c1ccc(-c2cc(F)c(-c3ccn(C)c(=O)c3)cc2O)nn1)[C@H]1C[C@@H]2CC[C@@H](N2)[C@H]1F [Compound 1B, 4-(2-fluoro-4-(6-(((1R,2R,3S,5S)-2-fluoro-8-azabicyclo[3.2.1]octan-3-yl)(methyl)amino)pyridazin-3-yl)-5-hydroxyphenyl)-1-methylpyridin-2(1H)-one] | 0.01 to 15 | 0.01 to 15 | 0.01 to 15 | 0.01 to 15 | 0.49 | 40.4 | 97 | 98 | 83 |
| Cc1ccc(-c2ccc(-c3ccc(N(C)[C@H]4C[C@@H]5CCC[C@@H](N5)[C@H]4F)nn3)c(O)c2)nn1 [Compound 27B, 2-(6-(((1R,2R,3S,5S)-2-fluoro-9-azabicyclo[3.3.1]nonan-3-yl)(methyl)amino)pyridazin-3-yl)-5-(6-methylpyridazin-3-yl)phenol] | 16 to 50 | 0.01 to 15 | 0.01 to 15 | 0.01 to 15 | 1.13 | 43.5 | 98 | 115 | 38 |
| CN(c1ccc(-c2ccc(-n3nccn3)cc2O)nn1)[C@H]1C[C@@H]2CC[C@@H](N2)[C@H]1F [Compound 90B, 2-(6-(((1R,2R,3S,5S)-2-fluoro-8-azabicyclo[3.2.1]octan-3-yl)(methyl)amino)pyridazin-3-yl)-5-(2H-1,2,3-triazol-2-yl)phenol] | 0.01 to 15 | 0.01 to 15 | 0.01 to 15 | 16 to 50 | 6.56 | 16.1 | 43 | 67 | 2 |
| CN(c1ccc(-c2ccc(-n3ccnn3)cc2O)nn1)[C@H]1C[C@@H]2CCC[C@@H](N2)[C@H]1F [Compound 62B, 2-(6-(((1R,2R,3S,5S)-2-fluoro-9-azabicyclo[3.3.1]nonan-3-yl)(methyl)amino)pyridazin-3-yl)-5-(1H-1,2,3-triazol-1-yl)phenol] | 0.01 to 15 | 0.01 to 15 | 0.01 to 15 | 0.01 to 15 | 3.18 | 59.8 | 82 | 80 | 19 |
| CN(c1ccc(-c2cc3cncnc3cc2O)nn1)[C@H]1C[C@@H]2CC[C@@H](N2)[C@H]1F [Compound 75B, 6-(6-(((1R,2R,3S,5S)-2-fluoro-8-azabicyclo[3.2.1]octan-3-yl)(methyl)amino)pyridazin-3-yl)quinazolin-7-ol] | 51 to 100 | 51 to 100 | 16 to 50 | 16 to 50 | 2.44 | 50.5 | 88 | 90 | 21 |
| CCc1cn(-c2ccc(-c3ccc(N(C)[C@@H]4C[C@H]5CC(F)(F)[C@@H](C4)N5)nn3)c(O)c2)cn1 [Compound 18A, 2-(6-(((1S,3R,5R)-6,6-difluoro-8-azabicyclo[3.2.1]octan-3-yl)(methyl)amino)pyridazin-3-yl)-5-(4-ethyl-1H-imidazol-1-yl)phenol] | 16 to 50 | 51 to 100 | 16 to 50 | 0.01 to 15 | 7 | 40.7 | 56 | 71 | 6 |
